Data set [1] deals with rat. Conditions: Sub-acute dermal toxicity, sprague dawley, Topical, dose end: 2 week, group: systemic.
For data set [2], the system named is rat. Conditions: Subchronic dermal toxicity, Topical, dose end: 68 day, group: systemic.
Data set [3] relates to rat. Conditions: Subchronic dermal toxicity, sprague dawley, Topical, dose end: 90 day, group: systemic, systemic / pathology microscopic / skin / acanthosis + systemic / pathology microscopic / skin / edema + systemic / pathology microscopic / ….
The subject of data set [4] is rat. To be noted: Fertility (Segment I), Oral, Gavage/Intubation, dose end: 1 generation, group: parental.
The subject of data set [5] is rabbit. Conditions: Prenatal developmental toxicity study, new zealand white, Oral, Gavage/Intubation, dose end: 19 GD, group: maternal.
Data set [6] deals with rabbit. To be noted: Sub-acute repeat dose toxicity, new zealand white, Oral, Gavage/Intubation, dose end: 13 day, group: systemic.
Data set [7] concerns rabbit. To be noted: Sub-acute repeat dose toxicity, new zealand white, Oral, Gavage/Intubation, dose end: 13 day.
The subject of data set [8] is rat. Conditions: Prenatal developmental toxicity study, sprague dawley, Oral, Gavage/Intubation, dose end: 18 GD.
Data set [9] relates to rat. To be noted: Fertility (Segment I), Oral, Gavage/Intubation, dose end: 1 generation.
Where [10] appears, read: systemic / in life observation / clinical signs / erythema.
Setting [11] is: systemic / in life observation / clinical signs / erythema + systemic / in life observation / clinical signs / general pallor + systemic / ….
Setting [12] is: systemic / in life observation / clinical signs / [other] + systemic / pathology gross / skin / thickened + systemic / pathology gross / ….
Setting [13] is: systemic / in life observation / body weight / body weight gain + systemic / in life observation / clinical signs / salivation.
Where [14] appears, read: reproductive / reproductive performance / aborted / aborted + systemic / in life observation / body weight / body weight gain + systemic / ….
[15] abbreviates: systemic / in life observation / clinical signs / abnormal feces.
Where [16] appears, read: systemic / in life observation / clinical signs / tarry stools.
[17] abbreviates: systemic / in life observation / clinical signs / tarry stools + systemic / in life observation / body weight / body weight + systemic / in ….
The mark [18] stands for this setting: group: maternal, reproductive / reproductive performance / aborted / aborted.
The mark [19] stands for this setting: group: systemic, systemic / in life observation / body weight / body weight + systemic / in life observation / clinical signs / abnormal feces + systemic / ….
Where [20] appears, read: group: systemic, systemic / in life observation / clinical signs / abnormal feces.
The mark [21] stands for this setting: group: developmental, developmental / developmental malformation / bone / delayed ossification + developmental / developmental malformation / kidney / dilated ….
Where [22] appears, read: group: maternal, systemic / in life observation / body weight / body weight + systemic / in life observation / clinical signs / salivation + systemic / in ….
Setting [23] is: group: maternal, reproductive / reproductive performance / estrous cycle / length.
Setting [24] is: group: parental, systemic / in life observation / body weight / body weight gain + systemic / in life observation / clinical signs / salivation + systemic / ….

Where only a bound is given, the exact number is not on record here.

With `CC1(C)COCN1` [4,4-Dimethyloxazolidine], the LEL in the data set on rat [1] (setting [10]) came to 10 mg/kg/day; in the data set with rat [2] (systemic / in life observation / clinical signs / [other]), 19.5 mg/kg/day; in the data set on rat [3], 30 mg/kg/day. For the same molecule, the LOAEL is 10 mg/kg/day in the data set with rat [1] (setting [10]), 195 mg/kg/day in the data set with rat [2] (setting [12]) and 30 mg/kg/day in the data set on rat [3]. Further, the NEL in the data set with rat [1] (setting [11]) turned out to be 1 mg/kg/day; in the data set with rat [2] (setting [12]) it was 1.95 mg/kg/day; in the data set on rat [3], 1 mg/kg/day. For the same molecule, the figures for the NOAEL in the data set on rat [1] (setting [11]), with rat [2] (setting [12]) and with rat [3] were 1 mg/kg/day, 19.5 mg/kg/day and 1 mg/kg/day, respectively.
As for `CCOc1cccc(C2(N3CCN(c4ccccc4)CC3)CCC(C)CC2)c1.CS(=O)(=O)O` (configuration not stated), the LOAEL is > 100 mg/kg/day with rat [4] (setting [13]); > 300 mg/kg/day with rabbit [5] (setting [14]); > 1000 mg/kg/day in the data set on rabbit [6] (setting [17]); > 500 mg/kg/day with rabbit [7] (setting [18]); > 500 mg/kg/day in the data set with rabbit [7] (setting [19]); > 125 mg/kg/day with rat [8] (setting [21]). The LOAEL in the data set on rat [8] (setting [22]) was > 125 mg/kg/day; with rat [9] (setting [23]) it was > 100 mg/kg/day; with rat [9] (setting [24]) it was > 100 mg/kg/day. Also, the NEL is 10 mg/kg/day in the data set on rat [4] (setting [13]); < 15 mg/kg/day in the data set with rabbit [5] (setting [15]); < 100 mg/kg/day in the data set with rabbit [6] (setting [16]); 100 mg/kg/day in the data set on rabbit [7] (setting [18]); < 100 mg/kg/day in the data set with rabbit [7] (setting [20]); 12 mg/kg/day with rat [8] (setting [22]). In addition, the values for the NEL with rat [9] (setting [23]) and with rat [9] (setting [24]) were < 10 mg/kg/day and 10 mg/kg/day, respectively. Besides, the NOAEL was ≥ 100 mg/kg/day with rat [4] (setting [13]); ≥ 300 mg/kg/day in the data set with rabbit [5] (setting [14]); ≥ 1000 mg/kg/day with rabbit [6] (setting [17]); ≥ 500 mg/kg/day with rabbit [7] (setting [18]); ≥ 500 mg/kg/day with rabbit [7] (setting [19]); ≥ 125 mg/kg/day with rat [8] (setting [21]). In addition, the no-observed-adverse-effect level (NOAEL) in the data set with rat [8] (setting [22]) is ≥ 125 mg/kg/day; in the data set with rat [9] (setting [23]), ≥ 100 mg/kg/day; in the data set on rat [9] (setting [24]), ≥ 100 mg/kg/day. The LEL in the data set on rat [4] (systemic / in life observation / clinical signs / salivation) worked out at 30 mg/kg/day; with rabbit [5] (setting [15]) it was 15 mg/kg/day; with rabbit [6] (setting [16]) it was 100 mg/kg/day; in the data set with rabbit [7] (setting [18]) it was 300 mg/kg/day; in the data set on rabbit [7] (setting [20]), 100 mg/kg/day; with rat [8] (setting [21]) it was 60 mg/kg/day. The LEL in the data set on rat [8] (setting [22]) stood at 60 mg/kg/day; with rat [9] (setting [23]) it was 10 mg/kg/day; with rat [9] (setting [24]), 30 mg/kg/day.

For orientation: LOAEL means the lowest dose or exposure tested at which an adverse effect was seen. One may read the NOAEL as the highest tested level that showed no adverse finding.

(Values after EPA's ToxRefDB 2.)
